Data published in patent publication US20100298141A1, “SUBSTITUTED PYRIDINE N-OXIDE HERBICIDES” (E. I. DU PONT DE NEMOURS AND COMPANY, priority 2007, published 2010).

Legend:
barnyardgrass = assay: Test A pre-/postemergence greenhouse test; assay type: in vivo, Echinochloa crus-galli; details: for Plant response rating, Barnyardgrass: 0 to 100 scale where 0 is no effect and 100 is complete control; for Barnyardgrass plant response rating: 0 to 100 scale
Procedure, shortened: (§1)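 Pots of loam–sand soil sown with the test species are sprayed preemergence on the soil surface; emerged seedlings (1–2 leaves, 2–10 cm) are sprayed postemergence at the same time. The vehicle is a non-phytotoxic solvent mixture with surfactant. Injury is scored visually after ~10 d in greenhouse.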

redroot pigweed = assay: Test A pre-/postemergence greenhouse test; assay type: in vivo, Amaranthus retroflexus; details: for Plant response rating, Pigweed: 0 to 100 scale where 0 is no effect and 100 is complete control; for Pigweed plant response rating: 0 to 100 scale
Procedure, shortened: as §1

velvetleaf [1] = assay: Test A pre-/postemergence greenhouse test; assay type: in vivo, Abutilon theophrasti; details: for Plant response rating, Velvetleaf: 0 to 100 scale where 0 is no effect and 100 is complete control; for Velvetleaf plant response rating: 0 to 100 scale
Procedure, shortened: as §1

downy brome = assay: Test C pre-/postemergence test; assay type: in vivo, Bromus tectorum; details: for Plant response rating, Bromegrass, Downy: 31 g ai/ha, scale 0 to 100 (0 no effect, 100 complete control)
Procedure, shortened: (§2)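 Test chemicals were formulated with surfactant in a non-phytotoxic solvent and sprayed both on freshly planted seeds (preemergence) and on 1- to 4-leaf plants of 2–18 cm (postemergence). Flooded-paddy pots received compound directly into 3 cm of standing water, maintained for the test.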

green foxtail = assay: Test C pre-/postemergence test; assay type: in vivo, Setaria viridis; details: for Plant response rating, Foxtail, Green: 31 g ai/ha, scale 0 to 100 (0 no effect, 100 complete control)
Procedure, shortened: as §2

wild oat = assay: Test C pre-/postemergence test; assay type: in vivo, Avena fatua; details: for Plant response rating, Oat, Wild: 31 g ai/ha, scale 0 to 100 (0 no effect, 100 complete control)
Procedure, shortened: as §2

Surinam grass = assay: Test C pre-/postemergence test; assay type: in vivo, Brachiaria decumbens; details: for Plant response rating, Surinam Grass: 31 g ai/ha, scale 0 to 100 (0 no effect, 100 complete control)
Procedure, shortened: as §2

cocklebur = assay: Test C pre-/postemergence test; assay type: in vivo, Xanthium strumarium; details: for Plant response rating, Cocklebur: 31 g ai/ha, scale 0 to 100 (0 no effect, 100 complete control)
Procedure, shortened: as §2

crabgrass = assay: Test C pre-/postemergence test; assay type: in vivo, Digitaria sanguinalis; details: for Plant response rating, Crabgrass, Large: 31 g ai/ha, scale 0 to 100 (0 no effect, 100 complete control)
Procedure, shortened: as §2

giant foxtail = assay: Test C pre-/postemergence test; assay type: in vivo, Setaria faberii; details: for Plant response rating, Foxtail, Giant: 31 g ai/ha, scale 0 to 100 (0 no effect, 100 complete control)
Procedure, shortened: as §2

johnsongrass = assay: Test C pre-/postemergence test; assay type: in vivo, Sorghum halepense; details: for Plant response rating, Johnsongrass: 31 g ai/ha, scale 0 to 100 (0 no effect, 100 complete control)
Procedure, shortened: as §2

kochia = assay: Test C pre-/postemergence test; assay type: in vivo, Kochia scoparia; details: for Plant response rating, Kochia: 31 g ai/ha, scale 0 to 100 (0 no effect, 100 complete control)
Procedure, shortened: as §2

lambsquarters = assay: Test C pre-/postemergence test; assay type: in vivo, Chenopodium album; details: for Plant response rating, Lambsquarters: 31 g ai/ha, scale 0 to 100 (0 no effect, 100 complete control)
Procedure, shortened: as §2

eastern black nightshade = assay: Test C pre-/postemergence test; assay type: in vivo, Solanum ptycanthum; details: for Plant response rating, Nightshade: 31 g ai/ha, scale 0 to 100 (0 no effect, 100 complete control)
Procedure, shortened: as §2

common ragweed = assay: Test C pre-/postemergence test; assay type: in vivo, Ambrosia elation
Procedure, shortened: as §2

velvetleaf [2] = assay: Test C pre-/postemergence test; assay type: in vivo, Abutilon theophrasti; details: for Plant response rating, Velvetleaf: 31 g ai/ha, scale 0 to 100 (0 no effect, 100 complete control)
Procedure, shortened: as §2

rice = assay: Test C flooded paddy test; assay type: in vivo, Oryza sativa; details: Flood
Procedure, shortened: (§3)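 Flooded 3 cm over soil; compound into paddy water; depth kept constant. Greenhouse 13–15 d.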

duck salad = assay: Test C flooded paddy test; assay type: in vivo, Heteranthera limosa; details: Flood
Procedure, shortened: as §3

[3] = Postemergence, 500 g ai/ha, 0 is no effect, 100 is complete control
[4] = Preemergence, 125 g ai/ha, 0 no effect, 100 complete control
[5] = Preemergence, 500 g ai/ha, 0 no effect, 100 complete control
[6] = 62 g ai/ha, Preemergence, scale 0 to 100
[7] = 125 g ai/ha, preemergence, scale 0 (no effect) to 100 (complete control)
[8] = preemergence, 250 g ai/ha, scale 0 (no effect) to 100 (complete control)
[9] = 62 g ai/ha, scale 0 to 100 (0 no effect, 100 complete control)
[10] = 250 g ai/ha, scale 0 to 100, 0 no effect, 100 complete control, 13 to 15 days

Cn1nc(C(F)(F)C(F)(F)F)c(C[S+]([O-])c2ccc(Cl)c[n+]2[O-])c1OCC(F)(F)F (stereo not drawn) [Compound 92]
85: Bromegrass, Downy plant response rating (downy brome; [7]) | Oat, Wild plant response rating (wild oat; [6]) | Ragweed plant response rating (common ragweed; [6])
60: Barnyardgrass plant response rating (barnyardgrass; [4]) | Plant response rating, Oat, Wild (wild oat; Preemergence) | Plant response rating, Nightshade (eastern black nightshade; Preemergence)
30: Velvetleaf plant response rating (velvetleaf [1]; [4]) | Plant response rating, Rice (rice; [9])
55: Cocklebur plant response rating (cocklebur; [8]) | Plant response rating, Ducksalad (duck salad; [9])
70: Plant response rating, Barnyardgrass (barnyardgrass; Postemergence, 125 g ai/ha) | Bromegrass, Downy plant response rating (downy brome; [6]) | Plant response rating, Surinam Grass (Surinam grass; Preemergence)
95: Foxtail, Green plant response rating (green foxtail; [6]) | Plant response rating, Crabgrass, Large (crabgrass; Preemergence)
98: Foxtail, Green plant response rating (green foxtail; [7]) | Surinam Grass plant response rating (Surinam grass; [6]) | Crabgrass, Large plant response rating (crabgrass; [6]) | Plant response rating, Foxtail, Giant (giant foxtail; Preemergence) | Johnsongrass plant response rating (johnsongrass; [6])
50: Plant response rating, Pigweed (redroot pigweed; Postemergence, 125 g ai/ha) | Plant response rating, Velvetleaf (velvetleaf [1]; Postemergence, 125 g ai/ha) | Plant response rating, Bromegrass, Downy (downy brome; Preemergence) | Plant response rating, Kochia (kochia; Preemergence) | Velvetleaf plant response rating (velvetleaf [2]; [6]) | Plant response rating, Velvetleaf (velvetleaf [2]; Preemergence) | Plant response rating, Rice (rice; [10])
0: Cocklebur plant response rating (cocklebur; [6]) | Cocklebur plant response rating (cocklebur; [7]) | Plant response rating, Cocklebur (cocklebur; Preemergence)
90: Barnyardgrass plant response rating (barnyardgrass; [3]) | Plant response rating, Barnyardgrass (barnyardgrass; Preemergence, 500 g ai/ha) | Velvetleaf plant response rating (velvetleaf [1]; [3]) | Plant response rating, Foxtail, Green (green foxtail; Preemergence) | Oat, Wild plant response rating (wild oat; [7])
100: Pigweed plant response rating (redroot pigweed; [3]) | Pigweed plant response rating (redroot pigweed; [4]) | Plant response rating, Pigweed (redroot pigweed; Preemergence, 500 g ai/ha) | Velvetleaf plant response rating (velvetleaf [1]; [5]) | Bromegrass, Downy plant response rating (downy brome; [8]) | Foxtail, Green plant response rating (green foxtail; [8]) | Oat, Wild plant response rating (wild oat; [8]) | Surinam Grass plant response rating (Surinam grass; [7]) | Surinam Grass plant response rating (Surinam grass; [8]) | Crabgrass, Large plant response rating (crabgrass; [7]) | Crabgrass, Large plant response rating (crabgrass; [8]) | Foxtail, Giant plant response rating (giant foxtail; [6]) | Foxtail, Giant plant response rating (giant foxtail; [7]) | Foxtail, Giant plant response rating (giant foxtail; [8]) | Johnsongrass plant response rating (johnsongrass; [7]) | Johnsongrass plant response rating (johnsongrass; [8]) | Kochia plant response rating (kochia; [6]) | Kochia plant response rating (kochia; [7]) | Kochia plant response rating (kochia; [8]) | Lambsquarters plant response rating (lambsquarters; [6]) | Lambsquarters plant response rating (lambsquarters; [7]) | Plant response rating, Lambsquarters (lambsquarters; Preemergence) | Lambsquarters plant response rating (lambsquarters; [8]) | Nightshade plant response rating (eastern black nightshade; [7]) | Nightshade plant response rating (eastern black nightshade; [8]) | Ragweed plant response rating (common ragweed; [7]) | Ragweed plant response rating (common ragweed; [8]) | Velvetleaf plant response rating (velvetleaf [2]; [7]) | Velvetleaf plant response rating (velvetleaf [2]; [8]) | Plant response rating, Ducksalad (duck salad; [10])
80: Plant response rating, Johnsongrass (johnsongrass; Preemergence) | Nightshade plant response rating (eastern black nightshade; [6])

Cc1cc[n+]([O-])c(S(=O)(=O)Cc2c(C(F)(F)F)nn(C)c2OCC(F)F)c1 [Compound 94]
85: Plant response rating, Johnsongrass (johnsongrass; Preemergence) | Plant response rating, Kochia (kochia; Preemergence)
50: Plant response rating, Nightshade (eastern black nightshade; Preemergence)
65: Oat, Wild plant response rating (wild oat; [6]) | Oat, Wild plant response rating (wild oat; [7])
0: Cocklebur plant response rating (cocklebur; [6]) | Cocklebur plant response rating (cocklebur; [7]) | Plant response rating, Cocklebur (cocklebur; Preemergence) | Cocklebur plant response rating (cocklebur; [8]) | Plant response rating, Velvetleaf (velvetleaf [2]; Preemergence) | Plant response rating, Rice (rice; [9]) | Plant response rating, Ducksalad (duck salad; [9])
95: Bromegrass, Downy plant response rating (downy brome; [8]) | Foxtail, Giant plant response rating (giant foxtail; [6]) | Johnsongrass plant response rating (johnsongrass; [6])
60: Plant response rating, Barnyardgrass (barnyardgrass; Postemergence, 125 g ai/ha) | Plant response rating, Pigweed (redroot pigweed; Postemergence, 125 g ai/ha) | Plant response rating, Ragweed (common ragweed; Preemergence, 31 g ai/ha, scale 0 to 100 (0 no effect, 100 complete control))
55: Nightshade plant response rating (eastern black nightshade; [6])
75: Bromegrass, Downy plant response rating (downy brome; [6]) | Plant response rating, Ducksalad (duck salad; [10])
90: Barnyardgrass plant response rating (barnyardgrass; [3]) | Surinam Grass plant response rating (Surinam grass; [6]) | Surinam Grass plant response rating (Surinam grass; [7]) | Plant response rating, Surinam Grass (Surinam grass; Preemergence) | Plant response rating, Foxtail, Giant (giant foxtail; Preemergence) | Lambsquarters plant response rating (lambsquarters; [6]) | Plant response rating, Lambsquarters (lambsquarters; Preemergence)
40: Velvetleaf plant response rating (velvetleaf [2]; [6])
70: Barnyardgrass plant response rating (barnyardgrass; [4]) | Velvetleaf plant response rating (velvetleaf [1]; [3])
10: Plant response rating, Velvetleaf (velvetleaf [1]; Postemergence, 125 g ai/ha) | Velvetleaf plant response rating (velvetleaf [1]; [4]) | Plant response rating, Bromegrass, Downy (downy brome; Preemergence)
20: Plant response rating, Crabgrass, Large (crabgrass; Preemergence) | Plant response rating, Rice (rice; [10])
98: Plant response rating, Foxtail, Green (green foxtail; Preemergence) | Oat, Wild plant response rating (wild oat; [8]) | Crabgrass, Large plant response rating (crabgrass; [6])
80: Pigweed plant response rating (redroot pigweed; [3]) | Bromegrass, Downy plant response rating (downy brome; [7])
35: Plant response rating, Oat, Wild (wild oat; Preemergence)
100: Plant response rating, Barnyardgrass (barnyardgrass; Preemergence, 500 g ai/ha) | Pigweed plant response rating (redroot pigweed; [4]) | Plant response rating, Pigweed (redroot pigweed; Preemergence, 500 g ai/ha) | Velvetleaf plant response rating (velvetleaf [1]; [5]) | Foxtail, Green plant response rating (green foxtail; [6]) | Foxtail, Green plant response rating (green foxtail; [7]) | Foxtail, Green plant response rating (green foxtail; [8]) | Surinam Grass plant response rating (Surinam grass; [8]) | Crabgrass, Large plant response rating (crabgrass; [7]) | Crabgrass, Large plant response rating (crabgrass; [8]) | Foxtail, Giant plant response rating (giant foxtail; [7]) | Foxtail, Giant plant response rating (giant foxtail; [8]) | Johnsongrass plant response rating (johnsongrass; [7]) | Johnsongrass plant response rating (johnsongrass; [8]) | Kochia plant response rating (kochia; [6]) | Kochia plant response rating (kochia; [7]) | Kochia plant response rating (kochia; [8]) | Lambsquarters plant response rating (lambsquarters; [7]) | Lambsquarters plant response rating (lambsquarters; [8]) | Nightshade plant response rating (eastern black nightshade; [7]) | Nightshade plant response rating (eastern black nightshade; [8]) | Ragweed plant response rating (common ragweed; [6]) | Ragweed plant response rating (common ragweed; [7]) | Ragweed plant response rating (common ragweed; [8]) | Velvetleaf plant response rating (velvetleaf [2]; [7]) | Velvetleaf plant response rating (velvetleaf [2]; [8])
